Measurements from patent publication US8263642B2, “Antimicrobial compounds and methods of use thereof” (Vanderbilt University, priority 2008, dated 2012).

Tests used:
[1] = tested on: HssRS-dependent hrtAB expression; assay: Luminescence-based assay to monitor HssRS-dependent hrtAB expression (phrtABlux reporter), Newman; format: cell-based, Staphylococcus aureus; details: raw luminescence value obtained in a luminometer; Newman
Method: (§1) With reference to Table 1, “Luminescence” refers to the raw luminescence value obtained in a luminomter. “Control (82.5 nm)” refers to the luminescence value obtained from heme at 82.5 nM as a positive control in the same plate as the experimental. “% lum” is the percentage of luminescence induced by the compound as compared to the heme control in the same plate. […] All of these assays are described in the application. […] “N/T” indicates the test was not performed.
A hrtAB-driven expression system was created in the pXen vector system (Xenogen) (Francis, K. P., D. Joh, C. Bellinger-Kawahara, M. J. Hawkinson, T. F. Purchio, and P. R. Contag. 2000. Monitoring bioluminescent Staphylococcus aureus infections in living mice using a novel luxABCDE construct. Infect Immun 68:3594-3600). This vector contains a promoterless luxCDABE operon from Photorabdus luminescens which produces blue green light when expressed. The luxCDABE encodes for a fatty acid reductase (LuxCDE) that produces a long chain fatty aldehyde which, when combined with cellular flavin mononucleotide, is oxidized by a luciferase (LuxAB) to produce light. Therefore, this system is useful in that it bypasses the need for substrate addition and is capable of generating light in the absence of any added reagents. Furthermore, the luminescent signal produced by the combined activities of LuxAB and LuxCDE is of sufficient intensity to be visualized in unmanipulated intact bacteria.
To establish an assay that measures HssRS-dependent expression of luxCDABE, the promoter for hrtAB upstream of luxCDABE was cloned and transformed this vector (phrtABlux) into wildtype and ΔhssR S. aureus. A promoterless vector (plux) and a plasmid containing luxCDABE under the control of a constitutive promoter (psrtAlux) (Mazmanian, S. K., G. Liu, H. Ton-That, and O. Schneewind. 1999. “Staphylococcus aureus sortase, an enzyme that anchors surface proteins to the cell wall.” Science 285:760-763) were included as negative and positive controls, respectively. Initially, wildtype S. aureus harboring either plux, phrtABlux, or psrtAlux were plated on solid medium that either lacked heme or contained 4 μM heme. Only wildtype S. aureus containing psrtAlux produced light on solid media regardless of the presence or absence of heme. […] Light was not produced by bacteria containing plux in either condition.
To adapt this system for a HTS to measure ligand recognition by HssRS, luminescence of wildtype and ΔhssR harboring the above listed plasmids in liquid media with or without heme was measured. […] Taken together, these experiments establish a whole cell […] assay that can identify small molecule modifiers of HssRS. This screen, in some aspects, can identify molecules that can be used as molecular probes in structure-function analyses to determine the mechanism by which S. aureus sense host heme.
Upon staphylococcal exposure to heme, HssRS senses heme and activates expression of hrtAB. This process can be measured using a reporter assay that employs a vector encoding the light-producing luxCDABE operon under the control of the hrtAB promoter. This assay results in whole cell luminescence upon HssRS-dependent activation of hrtAB, forming the foundation for the development of an assay suitable for high-throughput screens for small molecule activators of HssRS.
To develop an automated HTS format, S. aureus wildtype and ΔhssR harboring reporter constructs (psrtAlux, phrtAlux, plux) can be grown for 15 hours at 37° C. in tryptic soy broth (TSB) containing 10 μg/ml chloramphenicol. The addition of chloramphenicol is useful to ensure that the staphylococci propagate the reporter plasmid upon cell division. Following growth, bacterial cultures can be normalized and 2×10^7 cells (approximately 2 μl) can be added to individual wells of black walled, clear bottomed, 96-well plates. […]

[2] = tested on: hrtAB-driven expression of the xylE reporter gene; assay: XylE reporter assay (hrtAB promoter-xylE), Newman; format: cell-based, Staphylococcus aureus; details: for XylE (0.05): level of XylE induction at 0.05 uM of the compound; for XylE (0.5): level of XylE induction at 0.5 uM of the compound; for XylE (5.0): level of XylE induction at 5.0 uM of the compound; for XylE (50.0): level of XylE induction at 50.0 uM of the compound
Method: as §1
Compounds that activate HssRS-driven hrtAB expression in the luciferase-based screen can be subjected to two separate counter screens to confirm these compounds as active hits. First, compounds of interest can be tested for their ability to activate expression of hrtAB in the XylE expression assay described hereinbelow. This is an in vitro assay that measures hrtAB-driven expression of the xylE reporter gene. The XylE-based reporter assay utilizes slightly more manipulations than the primary luciferase-based screen. […] It should be appreciated that a shortcoming of this counter screen is that it measures reporter gene expression, which is a similar activity as that measured in the primary assay. To address this shortcoming, compounds that are positive in both XylE- and luciferase-based assays can be subjected to a second counter screen as described hereinbelow.
S. aureus strains harboring the appropriate reporter construct were inoculated into 500 μl of TSB containing 10 μg/ml chloramphenicol in 1.5 ml tubes. Cultures were grown O/N at 37° C. with shaking. Bacteria were pelleted by centrifugation and spent medium was aspirated. The pellet was washed once with 500 μl of 20 mM potassium phosphate, pH 7.6, and resuspended in 150 μl of 100 mM potassium phosphate buffer, pH 8.0, 10% (v/v) acetone, 25 μg/ml lysostaphin. After 20 minute incubation at 37° C. and 5 minute incubation on ice, samples were centrifuged at 20,000 g for 30 minutes at 4° C. 1-10 μl of supernatant was added to a 96-well plate and 200 μl of 100 mM potassium phosphate, pH 8.0, 0.2 mM pyrocatechol was added to each well. Formation of 2-hydroxymuconic semialdehyde was tracked by measuring the absorbance at 375 nm every minute for 30 minutes on a Varian MP 50 microplate reader. Protein concentration in samples was determined by BCA (Pierce). One unit of specific activity of XylE in a sample is defined as the formation of 1 nmol of 2-hydroxymuconic semialdehyde per minute per milligram of cellular protein at 30° C. (Chien, Y., Manna, A. C., Projan, S. J., and Cheung, A. L. 1999, “SarA, a global regulator of virulence determinants in Staphylococcus aureus, binds to a conserved motif essential for sar-dependent gene regulation. J. Biol. Chem. 274, 37169-37176).
The hrtAB intergenic region was fused to the xylE structural gene by PCR-SOE. In the first reaction, primer P1B:[…] and P2B:[…] were used to amplify the hrtAB intergenic region from S. aureus strain Newman genomic DNA. In the second PCR reaction primers P3B:[…] and P4B:[…] were used to amplify the xylE structural gene using pALC1639 template DNA (provided by Dr. Ambrose Cheung) and PCR product purified using a Qiagen gel extraction kit. For the PCRSOE reaction, a 1:300 dilution of purified reaction 1 and reaction 2 PCR products was mixed and amplified by PCR using […]. This yielded a construct in which the hrtAB intergenic region is fused to the xylE gene in such a manner that the position of the start codon for xylE corresponds to the position of the start codon for […] in the hrtAB locus. The hrtAB promoter-xylE fusion DNA was then subcloned into pOS1. As a control we also constructed a promoterless xylE vector. The xylE gene was amplified from pACL1639 template DNA using the primers P1C:[…] and P2C:[…] and then cloned into the pOS1 vector.

Compound | Luminescence [1] | XylE (0.05) [2] | XylE (0.5) [2] | XylE (5.0) [2] | XylE (50.0) [2]
O=C(Nc1ccc(/N=N/c2ccccc2)cc1)c1cccnc1 | 3086 | 0 | 1 | 1 | 0.7
C/C(=N/NC(=O)c1cccc(I)c1)c1ccccc1O | 5542 | 1 | 0.03 | 0.04 | 0.3
CCCCCCC(=O)NC(NC(=S)Nc1ccccc1O)C(Cl)(Cl)Cl (stereo not shown) | 2766 | 0.5 | 0.2 | 0.04 | 0.03
Cc1c(-c2ccccc2)nc2ccccc2c1C(=O)Nc1ccccc1C(F)(F)F | 2424 | 0.5 | 0.7 | 0.03 | 0.02
O=C1C2=C(Nc3nn(-c4ccccc4)c(O)c3C2c2ccc([N+](=O)[O-])cc2)c2ccccc21 (stereo not shown) | 2608 | 0.4 | 1 | 0.3 | 1
CCOC(=O)c1c(NC(=O)C2CCCCC2)sc(C(=O)Nc2ccc(C)c(Cl)c2)c1C | 2374 | 8 | 2 | 1 | 1
Oc1ccc(Nc2n[n+](-c3ccc(Cl)cc3)cc3ccccc23)cc1 | 2098 | 0.5 | 6 | 1 | 0.6
COc1ccccc1N1C(=O)c2ccc(C(=O)OC(C)C(=O)c3ccc(C)cc3)cc2C1=O (stereo not shown) | 3189 | 1 | 0.6 | 0.7 | 1
Oc1ccc(Nc2nc(-c3ccc(Cl)cc3)nc3ccccc23)cc1 | 3096 | 1 | 1 | 1 | 1
CC(C)c1ccc(NS(=O)(=O)c2ccc3[nH]c(-c4ccccc4)nc3c2)cc1 | 2146 | 1 | 1 | 9 | 1
CCOc1ccc(NC(=O)c2sc3nc(C)nc(N4CCCCC4)c3c2C)cc1 | 2277 | 1 | 0.07 | 1 | 1
O=C(Nc1ccc(-c2csc(Nc3cccc(Cl)c3)n2)cc1)c1ccccc1 | 3586 | 1 | 0.07 | 1 | 0.08
CCC(C)NC(=O)c1sc2nc(C)nc(N3CCCCC3)c2c1C (stereo not shown) | 2301 | 1 | 1 | 1 | 7
Brc1ccc2[nH]cc(-c3nc(-c4ccccc4)c(-c4ccccc4)[nH]3)c2c1 | 2549 | 0.4 | 2 | 1 | 1
COc1ccc(OC(=O)c2ccc(N3C(=O)C4C5CCC(C5)C4C3=O)cc2)cc1 (stereo not shown) | 3096 | – | 0.09 | 0.03 | 0.02
O=C(Nc1c2c(nn1-c1ccc(Cl)cc1)CSC2)c1cccc(C(F)(F)F)c1 | 2866 | – | 0.03 | 0.04 | 0.06
Cc1ccc(-c2nc(Nc3ccc4c(c3)OCO4)c3ccccc3n2)cc1 | 2101 | – | 0.04 | 0 | 0
O=c1c2ccccc2nc(/C=C\c2ccccc2F)n1-c1ccccc1F | 3115 | – | 1 | 0 | 0
Nc1ccccc1C(=O)Nc1nc2ccc(Cl)cc2s1 | 1741 | – | 0.01 | 0.03 | 0.04
Cc1ccc2c(c1)C(c1ccccc1)=NNC(c1ccccc1)=N2 | 2763 | – | 0 | 0.2 | 0.4
COc1ccccc1-c1csc(NC(=O)c2ccc(-c3ccccc3)cc2)n1 | 1704 | – | 0.05 | 1 | 1
CC(C)(C)c1cc2c(c(C(C)(C)C)c1)OC(c1cc([N+](=O)[O-])ccc1O)N2 (stereo not shown) | 1805 | – | 0.04 | 0 | 0.04
Cc1c(NC(=O)c2ccc(Cl)c([N+](=O)[O-])c2)cccc1-c1nc2ccccc2o1 | 1912 | – | 0.06 | 0.1 | 0.5
CCc1ccc2oc(-c3ccc(NC(=O)c4ccccc4OC)cc3)nc2c1 | 2392 | – | 0.05 | 2 | 3
FC(F)(F)c1cccc(Nc2nc(-c3cccnc3)nc3ccccc23)c1 | 1616 | – | 0.02 | 0.05 | 0.02
COc1ccc(C2CC(C3C(=O)c4ccccc4C3=O)=NN2)cc1 (stereo not shown) | 1888 | – | 0.08 | 5 | 0.09
